Assay results from ChEMBL document CHEMBL3991601, “The target landscape of clinical kinase drugs” (Science, 2017).
Counter-ions that a name gives are not always drawn. The source made the active and inactive calls. Cut-off read from the data, not from the text of the source, for most assays here: actives have a measured Kd and inactives only a lower limit.

Assays:
[1] = target: T1, Serine/threonine-protein kinase Nek2 (Homo sapiens, UniProt P51955)
T1 sequence (P51955 whole entry): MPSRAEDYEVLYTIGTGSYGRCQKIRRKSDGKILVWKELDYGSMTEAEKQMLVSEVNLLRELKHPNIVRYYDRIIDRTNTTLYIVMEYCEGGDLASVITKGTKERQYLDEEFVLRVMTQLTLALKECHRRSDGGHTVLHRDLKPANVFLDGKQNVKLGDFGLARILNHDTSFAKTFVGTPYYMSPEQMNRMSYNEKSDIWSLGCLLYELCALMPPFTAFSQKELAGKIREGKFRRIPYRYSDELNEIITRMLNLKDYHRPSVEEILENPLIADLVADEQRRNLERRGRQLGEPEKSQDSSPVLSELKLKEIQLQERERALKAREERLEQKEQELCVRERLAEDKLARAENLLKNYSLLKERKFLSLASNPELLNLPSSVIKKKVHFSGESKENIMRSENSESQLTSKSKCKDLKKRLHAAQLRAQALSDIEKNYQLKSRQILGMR

[2] = target: DnaJ homolog subfamily A member 1 (Homo sapiens, UniProt P31689)
Chain of DnaJ homolog subfamily A member 1 (P31689 whole entry): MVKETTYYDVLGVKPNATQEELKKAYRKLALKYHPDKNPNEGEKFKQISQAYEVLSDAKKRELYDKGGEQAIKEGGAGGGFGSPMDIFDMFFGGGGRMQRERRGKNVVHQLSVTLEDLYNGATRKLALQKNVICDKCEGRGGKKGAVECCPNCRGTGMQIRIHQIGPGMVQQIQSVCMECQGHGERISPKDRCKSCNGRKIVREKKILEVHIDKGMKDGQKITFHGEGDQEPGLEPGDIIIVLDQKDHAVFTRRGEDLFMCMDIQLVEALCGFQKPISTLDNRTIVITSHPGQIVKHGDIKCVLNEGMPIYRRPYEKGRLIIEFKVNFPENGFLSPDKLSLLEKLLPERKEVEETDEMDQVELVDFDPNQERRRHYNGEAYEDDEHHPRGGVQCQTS

[3] = target: Macrophage-stimulating protein receptor (Homo sapiens, UniProt Q04912)
Chain of Macrophage-stimulating protein receptor (Q04912 25-304 limits assumed): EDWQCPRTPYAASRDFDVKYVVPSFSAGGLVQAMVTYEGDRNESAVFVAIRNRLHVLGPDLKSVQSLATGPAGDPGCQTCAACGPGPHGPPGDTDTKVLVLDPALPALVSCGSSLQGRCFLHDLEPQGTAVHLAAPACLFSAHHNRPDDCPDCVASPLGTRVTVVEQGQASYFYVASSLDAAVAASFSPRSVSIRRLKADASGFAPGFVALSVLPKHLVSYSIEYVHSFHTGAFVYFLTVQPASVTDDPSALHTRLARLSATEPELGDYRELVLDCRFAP
Chain of Macrophage-stimulating protein receptor (Q04912 310-1400 limits assumed): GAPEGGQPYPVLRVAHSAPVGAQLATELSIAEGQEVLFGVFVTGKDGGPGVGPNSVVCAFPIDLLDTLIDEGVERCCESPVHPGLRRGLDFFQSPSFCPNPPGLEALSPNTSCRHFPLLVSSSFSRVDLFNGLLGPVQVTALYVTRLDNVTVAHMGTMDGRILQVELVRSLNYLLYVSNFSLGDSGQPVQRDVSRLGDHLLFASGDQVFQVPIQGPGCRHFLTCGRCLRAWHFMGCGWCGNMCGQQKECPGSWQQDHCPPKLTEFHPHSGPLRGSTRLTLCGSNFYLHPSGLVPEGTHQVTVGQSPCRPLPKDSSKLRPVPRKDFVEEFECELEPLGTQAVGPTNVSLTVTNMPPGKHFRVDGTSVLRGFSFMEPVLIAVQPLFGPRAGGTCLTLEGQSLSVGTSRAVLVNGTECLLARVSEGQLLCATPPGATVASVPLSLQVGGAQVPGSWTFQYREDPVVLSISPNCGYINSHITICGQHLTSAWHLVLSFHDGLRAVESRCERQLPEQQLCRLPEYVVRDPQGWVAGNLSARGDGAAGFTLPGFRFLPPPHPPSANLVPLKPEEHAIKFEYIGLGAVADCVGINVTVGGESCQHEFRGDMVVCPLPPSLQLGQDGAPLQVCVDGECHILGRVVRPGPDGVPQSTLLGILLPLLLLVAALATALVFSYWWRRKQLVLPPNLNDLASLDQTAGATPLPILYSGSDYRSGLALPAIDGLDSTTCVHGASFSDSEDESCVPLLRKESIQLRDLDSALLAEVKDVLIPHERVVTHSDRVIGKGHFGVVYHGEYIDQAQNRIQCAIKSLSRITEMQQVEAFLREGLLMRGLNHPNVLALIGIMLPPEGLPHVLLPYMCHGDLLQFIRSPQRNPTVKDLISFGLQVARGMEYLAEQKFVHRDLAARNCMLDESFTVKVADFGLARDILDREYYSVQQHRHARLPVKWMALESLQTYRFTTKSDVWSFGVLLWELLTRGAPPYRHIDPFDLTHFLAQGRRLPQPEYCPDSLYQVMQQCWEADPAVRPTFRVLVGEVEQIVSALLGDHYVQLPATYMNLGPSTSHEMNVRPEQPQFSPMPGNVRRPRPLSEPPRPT

[4] = target: Mitogen-activated protein kinase 14 (Homo sapiens, UniProt Q16539)
Chain of Mitogen-activated protein kinase 14 (Q16539 whole entry): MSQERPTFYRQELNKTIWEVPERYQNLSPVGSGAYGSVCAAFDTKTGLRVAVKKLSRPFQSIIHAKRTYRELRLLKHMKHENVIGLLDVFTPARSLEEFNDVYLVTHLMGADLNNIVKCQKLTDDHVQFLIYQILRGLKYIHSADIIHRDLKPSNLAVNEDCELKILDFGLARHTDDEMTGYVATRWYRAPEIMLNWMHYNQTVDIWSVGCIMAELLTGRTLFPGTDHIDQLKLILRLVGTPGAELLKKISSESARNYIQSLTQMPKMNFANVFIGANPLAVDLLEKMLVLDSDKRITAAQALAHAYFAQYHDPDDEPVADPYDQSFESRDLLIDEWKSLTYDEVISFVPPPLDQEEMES

[5] = target: Mitogen-activated protein kinase kinase kinase kinase 4 (Homo sapiens, UniProt O95819)
[6] = target: T2, Breakpoint cluster region protein (Homo sapiens, UniProt P11274)
T2 sequence (P11274 whole entry): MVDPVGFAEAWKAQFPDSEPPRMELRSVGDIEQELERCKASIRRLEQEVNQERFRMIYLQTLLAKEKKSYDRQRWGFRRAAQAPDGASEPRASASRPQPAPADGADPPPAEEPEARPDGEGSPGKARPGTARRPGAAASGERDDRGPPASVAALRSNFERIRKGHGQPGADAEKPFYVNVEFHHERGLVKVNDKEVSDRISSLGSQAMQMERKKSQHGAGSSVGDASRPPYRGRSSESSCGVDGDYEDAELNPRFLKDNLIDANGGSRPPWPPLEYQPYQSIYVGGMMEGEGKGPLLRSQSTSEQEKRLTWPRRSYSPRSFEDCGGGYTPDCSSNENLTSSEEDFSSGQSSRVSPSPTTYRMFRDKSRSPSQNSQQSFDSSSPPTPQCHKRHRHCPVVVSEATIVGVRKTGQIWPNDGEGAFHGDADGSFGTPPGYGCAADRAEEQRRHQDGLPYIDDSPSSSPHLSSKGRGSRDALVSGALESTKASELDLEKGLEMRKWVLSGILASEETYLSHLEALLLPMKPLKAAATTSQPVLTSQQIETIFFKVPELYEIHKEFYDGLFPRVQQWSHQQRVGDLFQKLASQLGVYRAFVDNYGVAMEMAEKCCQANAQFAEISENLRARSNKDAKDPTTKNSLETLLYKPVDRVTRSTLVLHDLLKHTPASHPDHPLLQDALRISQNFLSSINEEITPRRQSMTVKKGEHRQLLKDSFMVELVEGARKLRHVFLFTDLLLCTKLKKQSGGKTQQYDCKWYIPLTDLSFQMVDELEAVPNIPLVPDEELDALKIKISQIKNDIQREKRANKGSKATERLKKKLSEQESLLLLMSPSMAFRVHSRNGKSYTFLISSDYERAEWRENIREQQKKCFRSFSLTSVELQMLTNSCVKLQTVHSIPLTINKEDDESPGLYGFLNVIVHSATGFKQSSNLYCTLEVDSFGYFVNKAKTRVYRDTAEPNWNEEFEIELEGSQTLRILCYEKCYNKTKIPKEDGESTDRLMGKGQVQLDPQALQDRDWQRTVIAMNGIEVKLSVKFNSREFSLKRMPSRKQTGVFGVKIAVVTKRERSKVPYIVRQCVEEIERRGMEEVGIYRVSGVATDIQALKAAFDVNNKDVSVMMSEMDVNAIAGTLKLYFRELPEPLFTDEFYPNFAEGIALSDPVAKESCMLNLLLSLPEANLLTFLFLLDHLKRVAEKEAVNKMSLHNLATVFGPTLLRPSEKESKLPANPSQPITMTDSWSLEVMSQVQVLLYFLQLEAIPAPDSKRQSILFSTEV

[7] = target: Glycogen synthase kinase-3 alpha (Homo sapiens, UniProt P49840)
Chain of Glycogen synthase kinase-3 alpha (P49840 whole entry): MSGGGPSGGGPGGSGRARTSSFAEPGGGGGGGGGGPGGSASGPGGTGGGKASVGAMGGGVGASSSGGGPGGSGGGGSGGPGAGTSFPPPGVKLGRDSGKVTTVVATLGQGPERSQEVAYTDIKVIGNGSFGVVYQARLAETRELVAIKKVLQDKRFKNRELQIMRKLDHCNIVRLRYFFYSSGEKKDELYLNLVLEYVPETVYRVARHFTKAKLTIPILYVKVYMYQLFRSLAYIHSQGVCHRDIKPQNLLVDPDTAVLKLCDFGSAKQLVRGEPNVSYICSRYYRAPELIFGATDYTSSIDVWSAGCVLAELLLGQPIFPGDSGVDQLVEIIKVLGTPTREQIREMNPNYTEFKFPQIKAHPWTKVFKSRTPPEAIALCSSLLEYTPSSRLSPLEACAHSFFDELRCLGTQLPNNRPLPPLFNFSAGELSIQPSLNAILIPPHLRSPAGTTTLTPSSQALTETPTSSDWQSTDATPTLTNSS

[8] = target: Serine/threonine-protein kinase B-raf (Homo sapiens, UniProt P15056)
Chain of Serine/threonine-protein kinase B-raf (P15056 whole entry): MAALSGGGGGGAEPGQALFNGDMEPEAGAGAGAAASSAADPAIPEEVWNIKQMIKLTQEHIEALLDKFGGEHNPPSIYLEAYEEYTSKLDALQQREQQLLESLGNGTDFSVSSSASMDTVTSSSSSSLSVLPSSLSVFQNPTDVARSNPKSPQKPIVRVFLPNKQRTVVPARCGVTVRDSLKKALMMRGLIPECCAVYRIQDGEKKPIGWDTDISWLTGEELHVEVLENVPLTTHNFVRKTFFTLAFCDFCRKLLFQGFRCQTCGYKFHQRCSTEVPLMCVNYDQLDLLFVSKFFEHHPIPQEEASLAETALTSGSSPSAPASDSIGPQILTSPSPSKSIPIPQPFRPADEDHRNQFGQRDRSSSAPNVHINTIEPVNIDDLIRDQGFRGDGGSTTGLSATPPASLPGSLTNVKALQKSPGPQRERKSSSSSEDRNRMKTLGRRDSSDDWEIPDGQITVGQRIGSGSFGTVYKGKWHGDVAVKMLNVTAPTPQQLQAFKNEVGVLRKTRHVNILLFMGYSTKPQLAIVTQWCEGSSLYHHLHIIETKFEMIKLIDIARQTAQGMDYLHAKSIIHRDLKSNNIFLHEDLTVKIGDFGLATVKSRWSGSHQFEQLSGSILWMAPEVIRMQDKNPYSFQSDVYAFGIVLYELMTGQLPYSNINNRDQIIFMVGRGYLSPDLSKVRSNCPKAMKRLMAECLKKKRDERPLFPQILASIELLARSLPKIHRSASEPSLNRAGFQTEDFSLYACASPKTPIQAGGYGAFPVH

[9] = target: Citron Rho-interacting kinase (Homo sapiens, UniProt O14578)
[10] = target: High affinity nerve growth factor receptor (Homo sapiens, UniProt P04629)
Chain of High affinity nerve growth factor receptor (P04629 whole entry): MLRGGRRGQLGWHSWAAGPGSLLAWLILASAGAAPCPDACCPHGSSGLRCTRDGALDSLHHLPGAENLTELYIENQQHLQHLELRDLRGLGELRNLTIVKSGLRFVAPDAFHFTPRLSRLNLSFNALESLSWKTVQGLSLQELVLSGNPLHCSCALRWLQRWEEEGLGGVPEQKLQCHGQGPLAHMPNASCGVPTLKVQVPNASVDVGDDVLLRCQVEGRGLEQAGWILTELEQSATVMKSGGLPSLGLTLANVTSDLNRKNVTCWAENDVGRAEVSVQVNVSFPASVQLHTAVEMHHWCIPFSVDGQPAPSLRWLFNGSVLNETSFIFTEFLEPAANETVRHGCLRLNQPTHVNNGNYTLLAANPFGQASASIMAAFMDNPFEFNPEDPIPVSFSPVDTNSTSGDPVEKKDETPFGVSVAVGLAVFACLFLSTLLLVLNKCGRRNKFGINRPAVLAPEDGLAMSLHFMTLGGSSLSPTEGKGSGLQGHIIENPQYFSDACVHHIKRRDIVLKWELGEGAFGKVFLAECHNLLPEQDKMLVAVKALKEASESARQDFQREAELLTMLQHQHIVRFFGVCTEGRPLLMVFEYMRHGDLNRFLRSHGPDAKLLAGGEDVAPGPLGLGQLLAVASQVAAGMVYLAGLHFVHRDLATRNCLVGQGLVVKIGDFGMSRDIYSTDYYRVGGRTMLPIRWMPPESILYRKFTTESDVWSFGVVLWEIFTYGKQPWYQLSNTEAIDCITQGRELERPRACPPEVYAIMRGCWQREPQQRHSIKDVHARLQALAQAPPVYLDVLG

[11] = target: T3, Succinate--CoA ligase [ADP-forming] subunit beta, mitochondrial (Homo sapiens, UniProt Q9P2R7)
T3 sequence (Q9P2R7 whole entry): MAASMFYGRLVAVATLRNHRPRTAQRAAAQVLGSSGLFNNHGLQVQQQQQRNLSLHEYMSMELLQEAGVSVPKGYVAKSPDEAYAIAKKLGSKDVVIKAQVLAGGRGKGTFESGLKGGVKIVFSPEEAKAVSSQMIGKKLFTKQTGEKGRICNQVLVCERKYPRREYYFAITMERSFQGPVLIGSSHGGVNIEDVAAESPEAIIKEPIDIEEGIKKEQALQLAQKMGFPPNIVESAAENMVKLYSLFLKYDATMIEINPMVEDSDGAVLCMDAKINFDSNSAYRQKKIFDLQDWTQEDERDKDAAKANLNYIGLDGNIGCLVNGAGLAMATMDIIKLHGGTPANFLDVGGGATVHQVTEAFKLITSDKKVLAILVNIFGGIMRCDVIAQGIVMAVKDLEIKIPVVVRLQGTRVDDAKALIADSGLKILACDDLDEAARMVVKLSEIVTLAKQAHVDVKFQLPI

[12] = target: T4, Dual specificity mitogen-activated protein kinase kinase 6 (Homo sapiens, UniProt P52564)
T4 sequence (P52564 whole entry): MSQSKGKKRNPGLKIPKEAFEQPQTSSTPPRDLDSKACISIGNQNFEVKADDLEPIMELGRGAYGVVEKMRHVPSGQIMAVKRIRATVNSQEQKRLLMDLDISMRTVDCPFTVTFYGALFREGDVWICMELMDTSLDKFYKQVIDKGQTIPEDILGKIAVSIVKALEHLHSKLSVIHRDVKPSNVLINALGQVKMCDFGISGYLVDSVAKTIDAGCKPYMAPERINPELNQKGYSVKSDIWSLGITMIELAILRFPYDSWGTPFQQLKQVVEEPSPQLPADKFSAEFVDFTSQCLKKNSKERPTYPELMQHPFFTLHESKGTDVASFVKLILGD
Note: in the data inactive means no Kd found up to 30 µM.

| Kd [1] | Kd [2] | Kd [3] | Kd [4] | Kd [5] | Kd [6] | Kd [7] | Kd [8] | Kd [9] | Kd [10] | Kd [11] | Kd [12] | SMILES |
| --- | --- | --- | --- | --- | --- | --- | --- | --- | --- | --- | --- | --- |
| > 30 µM (inactive) | > 30 µM (inactive) | > 30 µM (inactive) | > 30 µM (inactive) | 3.06 µM (active) | > 30 µM (inactive) | > 30 µM (inactive) | > 30 µM (inactive) | > 30 µM (inactive) | > 30 µM (inactive) | > 30 µM (inactive) | > 30 µM (inactive) | CCS(=O)(=O)N1CCN(c2ccc(Nc3ncc(C(N)=O)c(NC4CC4)n3)cc2)CC1 [Cerdulatinib Hydrochloride] |
| > 30 µM (inactive) | > 30 µM (inactive) | > 30 µM (inactive) | > 30 µM (inactive) | > 30 µM (inactive) | > 30 µM (inactive) | > 30 µM (inactive) | > 30 µM (inactive) | > 30 µM (inactive) | > 30 µM (inactive) | > 30 µM (inactive) | > 30 µM (inactive) | Cc1nc2cc(-n3ncc(C(=O)c4cc5ccccc5[nH]4)c3N)ccc2[nH]1 [FGFR INHIBITOR DEBIO 1347] |
| > 30 µM (inactive) | > 30 µM (inactive) | > 30 µM (inactive) | > 30 µM (inactive) | 1.69 µM (active) | > 30 µM (inactive) | > 30 µM (inactive) | > 30 µM (inactive) | > 30 µM (inactive) | > 30 µM (inactive) | > 30 µM (inactive) | > 30 µM (inactive) | Cc1cccc(-c2nn3c(c2-c2ccnc4ccc(C(N)=O)cc24)CCC3)n1 [GALUNISERTIB] |
| > 30 µM (inactive) | > 30 µM (inactive) | 1.99 µM (active) | > 30 µM (inactive) | > 30 µM (inactive) | 0.685 µM (active) | > 30 µM (inactive) | > 30 µM (inactive) | > 30 µM (inactive) | 2.96 µM (active) | > 30 µM (inactive) | > 30 µM (inactive) | CNC(=O)c1nn(C)c2c1C(C)(C)Cc1cnc(Nc3ccc(N4CCN(C)CC4)cc3)nc1-2 [MILCICLIB] |
| > 30 µM (inactive) | > 30 µM (inactive) | 0.278 µM (active) | > 30 µM (inactive) | > 30 µM (inactive) | > 30 µM (inactive) | > 30 µM (inactive) | > 30 µM (inactive) | > 30 µM (inactive) | > 30 µM (inactive) | > 30 µM (inactive) | > 30 µM (inactive) | CN(C[C@@H]1COCCO1)S(=O)(=O)Nc1ccc2ccc3ncc(-c4cnn(C)c4)cc3c(=O)c2c1 [MK-2461] |
| > 30 µM (inactive) | > 30 µM (inactive) | 0.956 µM (active) | > 30 µM (inactive) | > 30 µM (inactive) | > 30 µM (inactive) | > 30 µM (inactive) | > 30 µM (inactive) | > 30 µM (inactive) | > 30 µM (inactive) | > 30 µM (inactive) | > 30 µM (inactive) | Cn1cc(-c2cnc3ccc4ccc(CS(=O)(=O)NCc5ccccn5)cc4c(=O)c3c2)cn1 [MK-8033] |
| > 30 µM (inactive) | > 30 µM (inactive) | > 30 µM (inactive) | > 30 µM (inactive) | > 30 µM (inactive) | > 30 µM (inactive) | > 30 µM (inactive) | > 30 µM (inactive) | > 30 µM (inactive) | > 30 µM (inactive) | > 30 µM (inactive) | > 30 µM (inactive) | FC(F)(F)c1ccc(/C=C/c2nc(COc3ccc(CCCCn4ccnn4)cc3)co2)cc1 [MUBRITINIB] |
| > 30 µM (inactive) | > 30 µM (inactive) | > 30 µM (inactive) | > 30 µM (inactive) | > 30 µM (inactive) | 1.28 µM (active) | 2.09 µM (active) | > 30 µM (inactive) | > 30 µM (inactive) | 2.21 µM | > 30 µM (inactive) | > 30 µM (inactive) | Cc1nc(Nc2n[nH]c3c2CN(C(=O)N[C@H](CN(C)C)c2ccccc2)C3(C)C)c2sccc2n1 [PF-03758309] |
| > 30 µM (inactive) | > 30 µM (inactive) | > 30 µM (inactive) | > 30 µM (inactive) | > 30 µM (inactive) | > 30 µM (inactive) | > 30 µM (inactive) | > 30 µM (inactive) | > 30 µM (inactive) | > 30 µM (inactive) | > 30 µM (inactive) | > 30 µM (inactive) | N#CC1(c2ccc(NC(=O)c3cccnc3NCc3ccncc3)cc2)CCCC1 [RIVOCERANIB] |
| > 30 µM (inactive) | > 30 µM (inactive) | > 30 µM (inactive) | > 30 µM (inactive) | > 30 µM (inactive) | > 30 µM (inactive) | > 30 µM (inactive) | > 30 µM (inactive) | > 30 µM (inactive) | > 30 µM (inactive) | > 30 µM (inactive) | > 30 µM (inactive) | O=c1[nH]ccc2cc(OC3CCNCC3)ccc12 [SAR-407899 FREE BASE] |
| > 30 µM (inactive) | > 30 µM (inactive) | > 30 µM (inactive) | > 30 µM (inactive) | > 30 µM (inactive) | > 30 µM (inactive) | > 30 µM (inactive) | > 30 µM (inactive) | > 30 µM (inactive) | > 30 µM (inactive) | > 30 µM (inactive) | > 30 µM (inactive) | Cn1cc(-c2cnn3c(N)c(Br)c([C@@H]4CCCNC4)nc23)cn1 [SCH-900776] |

| SMILES | Kd [1] | Kd [2] | Kd [3] | Kd [4] | Kd [5] | Kd [6] | Kd [7] | Kd [8] | Kd [9] | Kd [10] | Kd [11] | Kd [12] |
| --- | --- | --- | --- | --- | --- | --- | --- | --- | --- | --- | --- | --- |
| O=C(Nc1nc2cccc(-c3ccc(CN4CCS(=O)(=O)CC4)cc3)n2n1)C1CC1 [FILGOTINIB] | > 30 µM (inactive) | > 30 µM (inactive) | > 30 µM (inactive) | > 30 µM (inactive) | > 30 µM (inactive) | > 30 µM (inactive) | > 30 µM (inactive) | > 30 µM (inactive) | > 30 µM (inactive) | > 30 µM (inactive) | > 30 µM (inactive) | > 30 µM (inactive) |
